Experimental data reported in paper PMC6591251, “Discovery of potent necroptosis inhibitors targeting RIPK1 kinase activity for the treatment of inflammatory disorder and cancer metastasis” (Cell Death & Disease, 2019).

Tests used:
[1] = system: phosphorylation of RIPK1, RIPK3, and MLKL in HT-29 cells; assay: Western blot of necroptotic signaling after T/S/Z; type: cell-based, human; settings: T/S/Z 8 h
Source text: In addition to TNF-induced necroptosis, it is known that TLR3 or TLR4 activation can also trigger necroptosis. We further evaluated the effects of PK6 and PK68 on TLR3- and TLR4-mediated necroptosis induced by poly(I:C)/z-VAD and LPS/z-VAD, respectively. […] To investigate the molecular mechanism of PK series-mediated necroptosis inhibition, we examined the effects of these compounds on the major steps of necroptotic signaling, including activation of RIPK1, RIPK3, and MLKL. […] It has been shown previously that RIPK3 activation leads to the formation of RIPK3 puncta during necroptosis.
Fig. 3 PK6 and PK68 block cellular activation of RIPK1, RIPK3, and MLKL upon necroptotic stimuli. a, b Bone marrow-derived macrophages from C57BL/6 mice or rat were pretreated with DMSO, PK6(10 μM), or PK68 (100 nM) for 1 h and subsequently treated with indicated stimuli for 24–30 h. Cell viability was determined by measuring ATP levels. L, LPS (20 ng/ml); P, poly(I:C) (50 μg/ml); S (100 nM); Z (10 μM). Data are represented as the mean ± standard deviation of triplicates. c HT-29 cells were treated with the indicated compound for 1 h prior to the treatment of T (40 ng/ml), S (100 nM), and Z (20 μM) for additional 8 h. […] The distribution of RIPK3 was detected by immunofluorescence. *P < 0.05. **P < 0.01. ***P < 0.001 […]

[2] = system: HeLa-MLKL (1–190) cells; assay: MLKL dimerization-induced cell death (AP20187); type: cell-based, human; settings: AP20187 100 nM, 24 h
Method: Recombinant proteins were incubated with PK6 and PK68 as indicated. […] NIH3T3-RIPK3 cells were pretreated with indicated compounds for 1 h and subsequently treated with T (40 ng/ml)/S (100 nM)/Z (20 μM) or AP20187 (100 nM) for 24 h. Cell viability was determined by measuring ATP levels. e PK6 and PK68 have no effect on MLKL dimerization-induced cell death in HeLa-MLKL (1–190) cells that stably express MLKL (1–190aa) fused to DmrB. HeLa-MLKL (1–190) cells were pretreated with indicated compounds for 1 h and subsequently treated with AP20187 (100 nM) for 24 h. Cell viability was determined by measuring ATP levels.
Further, we evaluated the selectivity of PK68 against a panel of 369 kinases provided by Reaction Biology (at 1000 nM). […] In addition, we followed on some of the active “hits” from the kinome scan. PK68 was tested against TNIK and TRKA by a reputable CRO company. […] RIPK1 is known to mediate NF-κB activation independently of its kinase activity. […] It has been shown that homodimerization of RIPK3 or MLKL induced by the dimerizer leads to necroptosis bypassing the upstream signals[10],[37]. […] This dimerized RIPK3-induced necroptosis was blocked by RIPK3 inhibitor GSK873 but was not blocked by the RIPK1 inhibitor necrostatin-1. […] (Fig. 4e).
The cell viability was analyzed by using the CellTiter-Glo Luminescent Cell Viability Assay kit following the manufacturer’s instructions (Promega). Luminescence was measured with SpectraMax i3x (Molecular Devices).

[3] = system: TNF-induced systemic inflammatory response syndrome; assay: TNF-induced SIRS mouse model; type: in vivo, C57BL/6 mice; settings: for protection against TNFα-induced lethal shock: PK6 30 mg/kg, PK68 1 mg/kg ip, 15 min before TNF-α 6 μg per mouse
Method: Necroptosis is involved in a variety of inflammatory disorders such as TNF-induced SIRS[11],[12]. We therefore evaluated the therapeutic effect of PK68 in a mouse model of TNF-induced SIRS. C57BL/6 mice were treated with vehicle, PK6, or PK68 for 15 min prior to intravenous injection of mouse TNFα (6 µg TNFα per mouse). […] SIRS is associated with systemic release of proinflammatory cytokines and tissue injuries. […] Moreover, TNF-induced damage of the colon was attenuated by the treatment of PK68 (Fig. 7d).
Fig. 7 PK68 ameliorates TNF-induced systemic inflammatory response syndrome. C57BL/6 mice (n = 11) were injected with vehicle, PK6 (30 mg/kg), or PK68 (1 mg/kg) via intraperitoneal injection for 15 min, followed by the tail intravenous injection of mouse TNF-α (6 μg per mouse). a, b The survival rate (a) and body temperature loss (b) were monitored. c, d C57BL/6 mice (n = 5) were injected with vehicle or PK68 (1 mg/kg) for 15 min prior to the injection of mouse TNF-α. The mice were sacrificed 4 h after TNF-α administration, the serum concentration of IL-1β was measured by ELISA kits (c), and histology of the colon tissue was analyzed by H&E staining and the representative images are shown (d). The serum or colon tissue from C57BL/6 mice was used as the control (Normal). Magnification: ×100 (left) and ×200 (right). Data represent mean value ± standard deviation. *P < 0.05. **P < 0.01. ***P < 0.001
PK6 and PK68 were diluted into sterile PBS. C57BL/6 mice were pretreated with vehicle, PK6 (30 mg/kg), or PK68 (1 mg/kg) via intraperitoneal injection for around 15 min and then challenged with mouse TNF-α (6 μg per mouse) via tail intravenous injection. Mice mortality was continuously monitored till 72 h after TNF-α administration. The serum and colon tissue are collected at 4 h post TNF-α challenge.

Compound	phosphorylation of RIPK1, RIPK3, and MLKL [1]	polymerized MLKL-induced necroptosis [2]	protection against TNFα-induced lethal shock [3]	TNFα-induced temperature loss ([3]; 1 mg/kg ip)	TNF-induced damage of the colon ([3]; 1 mg/kg, 4 h after TNF-α)	production of proinflammatory cytokines including IL-1β ([3]; 1 mg/kg, serum 4 h after TNF-α)
CC(=O)Nc1nc2ccc(-c3cnc(Cl)c(NC(=O)Cc4ccccc4)c3)cc2s1 [PK6, N-(5-(2-acetamidobenzo[d]thiazol-6-yl)-2-chloropyridin-3-yl)-2-phenylacetamide]	completely abolished	neither PK6 nor PK68 had any effect	effective protection			
CC(=O)Nc1nc2ccc(-c3cnc(C)c(NC(=O)OC4CCCCC4)c3)cc2s1 [PK68, cyclohexyl (5-(2-acetamidobenzo[d]thiazol-6-yl)-2-methylpyridin-3-yl)carbamate]	completely abolished	neither PK6 nor PK68 had any effect	effective protection	strongly reduced	attenuated	significantly ameliorated
